Measured values: patent US20230348424A1, “HETEROCYCLIC COMPOUNDS AND METHODS OF USE” (Schrödinger, Inc., priority 2022, published 2023)

Target: SOS1:KRAS (G12C) interaction (Homo sapiens (Human), UniProt Q07889)
Test: SOS1 KRas(G12C) FRET Assay
Type: binding
Details: 0.5 nM His10-SOS1 (res. 564-1049), 2.5 nM GST-KRAS G12C (res. 1-169), 2 hrs at RT
Outline: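 GST-KRAS G12C (res. 1-169) at 2.5 nM and His10-SOS1 (res. 564-1049) at 0.5 nM, final, in PBS with 0.1% BSA, 5 mM MgCl2, 100 mM KF, 5 mM DTT and 0.5% DMSO. After 2 h at RT, FRET read at 665/615 nm and normalized to DMSO and no-SOS1 controls. IC50 by non-linear regression.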

Sequence of SOS1:KRAS (G12C) interaction (Q07889 564-1049, stated change not applied): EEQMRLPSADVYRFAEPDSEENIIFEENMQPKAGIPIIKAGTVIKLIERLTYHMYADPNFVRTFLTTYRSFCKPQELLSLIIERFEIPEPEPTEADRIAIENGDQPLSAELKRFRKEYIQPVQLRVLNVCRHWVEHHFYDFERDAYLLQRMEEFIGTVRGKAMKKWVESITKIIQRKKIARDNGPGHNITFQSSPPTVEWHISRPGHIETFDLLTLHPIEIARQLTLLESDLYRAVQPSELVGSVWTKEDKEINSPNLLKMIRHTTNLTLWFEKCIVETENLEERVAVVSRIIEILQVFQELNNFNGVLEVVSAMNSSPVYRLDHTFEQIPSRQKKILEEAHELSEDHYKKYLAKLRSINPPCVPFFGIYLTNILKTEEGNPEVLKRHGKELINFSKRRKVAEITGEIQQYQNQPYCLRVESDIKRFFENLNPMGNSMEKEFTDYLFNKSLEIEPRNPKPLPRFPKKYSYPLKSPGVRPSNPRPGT

Compound | IC50 [µM]
C[C@@H](NC(=O)c1cn(C23COC(C(F)F)(C2)C3)c(=O)cc1NC1[C@H]2CN(C)C[C@@H]12)c1cccc(C(F)F)c1F (stereo partly drawn) [Example 263, N-((R)-1-(3-(difluoromethyl)-2-fluorophenyl)ethyl)-1-(1-(difluoromethyl)-2-oxabicyclo[2.1.1]hexan-4-yl)-4-(((1R,5S,6s)-3-methyl-3-azabicyclo[3.1.0]hexan-6-yl)amino)-6-oxo-1,6-dihydropyridine-3-carboxamide] | 0.0149
CC(=O)N1CCC(C)(n2cc(C(=O)N[C@H](C)c3cccc(C(F)F)c3F)c(NC3CCN(C)CC3)cc2=O)C1 (stereo partly drawn) [Example 264, 1-(1-acetyl-3-methylpyrrolidin-3-yl)-N-((R)-1-(3-(difluoromethyl)-2-fluorophenyl)ethyl)-4-((1-methylpiperidin-4-yl)amino)-6-oxo-1,6-dihydropyridine-3-carboxamide] | 0.0022
Cc1c([C@@H](C)NC(=O)c2cn(C3CCOCC3)c(=O)cc2NC2CCNCC2)cccc1C(F)(F)F [Example 282, (R)-N-(1-(2-methyl-3-(trifluoromethyl)phenyl)ethyl)-6-oxo-4-(piperidin-4-ylamino)-1-(tetrahydro-2H-pyran-4-yl)-1,6-dihydropyridine-3-carboxamide] | 0.0344
Cc1c([C@@H](C)NC(=O)c2cn(C3CCOCC3)c(=O)cc2NC2CCN(C)CC2(F)F)cccc1C(F)(F)F (stereo partly drawn) [Example 283, 4-((3,3-difluoro-1-methylpiperidin-4-yl)amino)-N-((R)-1-(2-methyl-3-(trifluoromethyl)phenyl)ethyl)-6-oxo-1-(tetrahydro-2H-pyran-4-yl)-1,6-dihydropyridine-3-carboxamide] | 0.137

Next, values leading:

IC50 [µM] | Compound
0.00244 | C[C@@H](NC(=O)c1cn(C2(C)CCN(C(=O)C3(F)CC3)C2)c(=O)cc1NC1CCN(C)CC1)c1cccc(C(F)F)c1F (stereo partly drawn) [Example 267, N-((R)-1-(3-(difluoromethyl)-2-fluorophenyl)ethyl)-1-(1-(1-fluorocyclopropane-1-carbonyl)-3-methylpyrrolidin-3-yl)-4-((1-methylpiperidin-4-yl)amino)-6-oxo-1,6-dihydropyridine-3-carboxamide]
0.0328 | C[C@@H](NC(=O)c1cn([C@@]2(C)CCN(C(=O)C3(F)CC3)C2)c(=O)cc1NC1CCN(C)CC1)c1cccc(C(F)F)c1F [Example 268, N-((R)-1-(3-(difluoromethyl)-2-fluorophenyl)ethyl)-1x-((S)-1-(1-fluorocyclopropane-1-carbonyl)-3-methylpyrrolidin-3-yl)-4-((1-methylpiperidin-4-yl)amino)-6-oxo-1,6-dihydropyridine-3-carboxamide]
0.00121 | C[C@@H](NC(=O)c1cn([C@]2(C)CCN(C(=O)C3(F)CC3)C2)c(=O)cc1NC1CCN(C)CC1)c1cccc(C(F)F)c1F [Example 269, N-((R)-1-(3-(difluoromethyl)-2-fluorophenyl)ethyl)-1-((R)-1-(1-fluorocyclopropane-1-carbonyl)-3-methylpyrrolidin-3-yl)-4-((1-methylpiperidin-4-yl)amino)-6-oxo-1,6-dihydropyridine-3-carboxamide]
0.00174 | C[C@@H](NC(=O)c1cn(C2(C)CN(C(=O)C3CC3)C2)c(=O)cc1N[C@H]1[C@@H]2CN(C)C[C@@H]21)c1cccc(C(F)F)c1F [Example 270, 1-(1-(cyclopropanecarbonyl)-3-methylazetidin-3-yl)-N-((R)-1-(3-(difluoromethyl)-2-fluorophenyl)ethyl)-4-(((1R,5S,6s)-3-methyl-3-azabicyclo[3.1.0]hexan-6-yl)amino)-6-oxo-1,6-dihydropyridine-3-carboxamide]
0.0373 | C[C@@H](NC(=O)c1cn(C2(C(F)F)CC2)c(=O)cc1N[C@H]1[C@@H]2CNC[C@@H]21)c1cccc(C(F)F)c1F [Example 279, 4-(((1R,5S,6s)-3-azabicyclo[3.1.0]hexan-6-yl)amino)-N-((R)-1-(3-(difluoromethyl)-2-fluorophenyl)ethyl)-1-(1-(difluoromethyl)cyclopropyl)-6-oxo-1,6-dihydropyridine-3-carboxamide]
